# The supplement of paper PMC11208160
# Test: recombinant UMI read abundance after kanamycin selection (control-corrected) (log10(CPM+1)); higher = more efficient recombination; extreme values may be limits of the assay; sequences stand for … in AGTGCAGAGAAAATCGGCCAGTTTTCTCTGCCTGCAGTCCGCATGCCGTGGGACCCCTTGGGTTCTAACCTGTTGCCTAGATTTATGCAGCGGACTGCCTTTCTCCCAAAGTGATAAACCGG…AGGTTGGTTTCACT; site = the 11-nt donor
# Outline: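 Pooled Escherichia coli screen of donor and donor-binding-loop pairs for the IS621 bridge recombinase. Each pair sits with a 12-nt UMI on a plasmid carrying a promoterless kanamycin gene. The library was co-electroporated with a target plasmid encoding a fixed target and T7-inducible recombinase, then plated with IPTG (0.07 mM) plus kanamycin, or unselected, each in two replicates. Recombinant UMIs were PCR-amplified across the donor–target junction and sequenced. Counts became CPM, averaged over replicates, scaled by control-derived factors and reported as log10(CPM+1).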
row,Sequence,recombinant UMI read abundance (log10)
1,CGATCATCATGGACCGGTTTTCCCGGTAATCCGTATTTGCT (site CGATAATCTAC),0
2,CGATCATCATGGACCGGTTTTCCCGGTAATCCGTATTTGCT (site CGATAATCTAG),0.558
3,CGATCATCATGGACCGGTTTTCCCGGTAATCCGTATTTGCT (site CGATAATCTCG),0
4,CGATCATCATGGACCGGTTTTCCCGGTAATCCGTATTTGCT (site CGATACTCTAG),0
5,CGATCATCATGGACCGGTTTTCCCGGTAATCCGTATTTGCT (site CGATCAACTAC),0.0107
6,CGATCATCATGGACCGGTTTTCCCGGTAATCCGTATTTGCT (site CGATCAACTAG),0
7,CGATCATCATGGACCGGTTTTCCCGGTAATCCGTATTTGCT (site CGATCAACTCG),0
8,CGATCATCATGGACCGGTTTTCCCGGTAATCCGTATTTGCT (site CGATCACCTAG),0
9,CGATCATCATGGACCGGTTTTCCCGGTAATCCGTATTTGCT (site CGATCACCTAT),0.0275
10,CGATCATCATGGACCGGTTTTCCCGGTAATCCGTATTTGCT (site CGATCACCTGG),0.009
11,CGATCATCATGGACCGGTTTTCCCGGTAATCCGTATTTGCT (site CGATCAGCTAA),0.00801
12,CGATCATCATGGACCGGTTTTCCCGGTAATCCGTATTTGCT (site CGATCAGCTAG),0
13,CGATCATCATGGACCGGTTTTCCCGGTAATCCGTATTTGCT (site CGATCAGCTTG),0
14,CGATCATCATGGACCGGTTTTCCCGGTAATCCGTATTTGCT (site CGATCATCTAA),0
15,CGATCATCATGGACCGGTTTTCCCGGTAATCCGTATTTGCT (site CGATCATCTAC),0
16,CGATCATCATGGACCGGTTTTCCCGGTAATCCGTATTTGCT (site CGATCATCTAG),1.82
17,CGATCATCATGGACCGGTTTTCCCGGTAATCCGTATTTGCT (site CGATCATCTAT),0
18,CGATCATCATGGACCGGTTTTCCCGGTAATCCGTATTTGCT (site CGATCATCTCC),0.00455
19,CGATCATCATGGACCGGTTTTCCCGGTAATCCGTATTTGCT (site CGATCATCTCG),0
20,CGATCATCATGGACCGGTTTTCCCGGTAATCCGTATTTGCT (site CGATCATCTGG),0
21,CGATCATCATGGACCGGTTTTCCCGGTAATCCGTATTTGCT (site CGATCATCTGT),0
22,CGATCATCATGGACCGGTTTTCCCGGTAATCCGTATTTGCT (site CGATCATCTTA),0
23,CGATCATCATGGACCGGTTTTCCCGGTAATCCGTATTTGCT (site CGATCATCTTG),0
24,CGATCATCATGGACCGGTTTTCCCGGTAATCCGTATTTGCT (site CGATCCACTAG),0.00991
25,CGATCATCATGGACCGGTTTTCCCGGTAATCCGTATTTGCT (site CGATCCTCTAC),0.00344

row,Sequence,recombinant UMI read abundance (log10)
1,CGATCATCATGGACCGGTTTTCCCGGTAATCCGTATTTGCT (site CGATCCTCTAG),0
2,CGATCATCATGGACCGGTTTTCCCGGTAATCCGTATTTGCT (site CGATCCTCTCG),0.00562
3,CGATCATCATGGACCGGTTTTCCCGGTAATCCGTATTTGCT (site CGATCGCCTAG),0.00385
4,CGATCATCATGGACCGGTTTTCCCGGTAATCCGTATTTGCT (site CGATCGTCTAG),0
5,CGATCATCATGGACCGGTTTTCCCGGTAATCCGTATTTGCT (site CGATCGTCTAT),0
6,CGATCATCATGGACCGGTTTTCCCGGTAATCCGTATTTGCT (site CGATCGTCTGG),0
7,CGATCATCATGGACCGGTTTTCCCGGTAATCCGTATTTGCT (site CGATCTGCTAG),0
8,CGATCATCATGGACCGGTTTTCCCGGTAATCCGTATTTGCT (site CGATCTTCTAA),0
9,CGATCATCATGGACCGGTTTTCCCGGTAATCCGTATTTGCT (site CGATCTTCTAG),0
10,CGATCATCATGGACCGGTTTTCCCGGTAATCCGTATTTGCT (site CGATCTTCTTG),0
11,CGATCATCATGGACCGGTTTTCCCGGTAATCCGTATTTGCT (site CGATGACCTAG),0
12,CGATCATCATGGACCGGTTTTCCCGGTAATCCGTATTTGCT (site CGATGATCTAG),0
13,CGATCATCATGGACCGGTTTTCCCGGTAATCCGTATTTGCT (site CGATGATCTAT),0.00469
14,CGATCATCATGGACCGGTTTTCCCGGTAATCCGTATTTGCT (site CGATGATCTGG),0
15,CGATCATCATGGACCGGTTTTCCCGGTAATCCGTATTTGCT (site CGATGGTCTAG),0
16,CGATCATCATGGACCGGTTTTCCCGGTAATCCGTATTTGCT (site CGATTAGCTAG),0.0161
17,CGATCATCATGGACCGGTTTTCCCGGTAATCCGTATTTGCT (site CGATTATCTAA),0
18,CGATCATCATGGACCGGTTTTCCCGGTAATCCGTATTTGCT (site CGATTATCTAG),0
19,CGATCATCATGGACCGGTTTTCCCGGTAATCCGTATTTGCT (site CGATTATCTTG),0
20,CGATCATCATGGACCGGTTTTCCCGGTAATCCGTATTTGCT (site CGATTTTCTAG),0
21,CGATCATCATGGACCGGTTTTCCCGGTAATCCGTATTTGCT (site CGCCCATCTAG),0.133
22,CGATCATCATGGACCGGTTTTCCCGGTAATCCGTATTTGCT (site CGCTAATCTAG),0
23,CGATCATCATGGACCGGTTTTCCCGGTAATCCGTATTTGCT (site CGCTCAACTAG),0
24,CGATCATCATGGACCGGTTTTCCCGGTAATCCGTATTTGCT (site CGCTCATCTAC),0.00488
25,CGATCATCATGGACCGGTTTTCCCGGTAATCCGTATTTGCT (site CGCTCATCTAG),0.295

row,Sequence,recombinant UMI read abundance (log10)
1,CGATCATCATGGACCGGTTTTCCCGGTAATCCGTATTTGCT (site CGCTCATCTCG),0
2,CGATCATCATGGACCGGTTTTCCCGGTAATCCGTATTTGCT (site CGCTCCTCTAG),0
3,CGATCATCATGGACCGGTTTTCCCGGTAATCCGTATTTGCT (site CGGGCATCTAG),0
4,CGATCATCATGGACCGGTTTTCCCGGTAATCCGTATTTGCT (site CGGTCAGCTAG),0.0144
5,CGATCATCATGGACCGGTTTTCCCGGTAATCCGTATTTGCT (site CGGTCATCTAA),0.0171
6,CGATCATCATGGACCGGTTTTCCCGGTAATCCGTATTTGCT (site CGGTCATCTAG),0
7,CGATCATCATGGACCGGTTTTCCCGGTAATCCGTATTTGCT (site CGGTCATCTTG),0.00419
8,CGATCATCATGGACCGGTTTTCCCGGTAATCCGTATTTGCT (site CGGTCTTCTAG),0.0105
9,CGATCATCATGGACCGGTTTTCCCGGTAATCCGTATTTGCT (site CGGTTATCTAG),0
10,CGATCATCATGGACCGGTTTTCCCGGTAATCCGTATTTGCT (site CGTACATCTAG),1.61
11,CGATCATCATGGACCGGTTTTCCCGGTAATCCGTATTTGCT (site CGTTCACCTAG),0
12,CGATCATCATGGACCGGTTTTCCCGGTAATCCGTATTTGCT (site CGTTCATCTAG),1.53
13,CGATCATCATGGACCGGTTTTCCCGGTAATCCGTATTTGCT (site CGTTCATCTAT),0
14,CGATCATCATGGACCGGTTTTCCCGGTAATCCGTATTTGCT (site CGTTCATCTGG),0
15,CGATCATCATGGACCGGTTTTCCCGGTAATCCGTATTTGCT (site CGTTCGTCTAG),0.0117
16,CGATCATCATGGACCGGTTTTCCCGGTAATCCGTATTTGCT (site CGTTGATCTAG),0
17,CGATCATCATGGACCGGTTTTCCCGGTAATCCGTATTTGCT (site CTACCATCTAG),1.69
18,CGATCATCATGGACCGGTTTTCCCGGTAATCCGTATTTGCT (site CTATAATCTAG),1.08
19,CGATCATCATGGACCGGTTTTCCCGGTAATCCGTATTTGCT (site CTATCAACTAG),0
20,CGATCATCATGGACCGGTTTTCCCGGTAATCCGTATTTGCT (site CTATCATCTAC),0.00862
21,CGATCATCATGGACCGGTTTTCCCGGTAATCCGTATTTGCT (site CTATCATCTAG),1.22
22,CGATCATCATGGACCGGTTTTCCCGGTAATCCGTATTTGCT (site CTATCATCTCG),0.0222
23,CGATCATCATGGACCGGTTTTCCCGGTAATCCGTATTTGCT (site CTATCCTCTAG),0
24,CGATCATCATGGACCGGTTTTCCCGGTAATCCGTATTTGCT (site CTCTCATCTAG),0.961
25,CGATCATCATGGACCGGTTTTCCCGGTAATCCGTATTTGCT (site GAATCATCTAG),0
